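Protocol summary: plate cells (96-well), add compound at 5 concentrations, incubate 48 h, interpolate endpoints linearly. GI50 marks 50% less growth.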 Activity calls are given as the source filed them. Rule as the data show it: active = GI50 up to about 1.1 µM and inactive = higher.
What was measured:
Experiment in all cases: NCI tumour cell line growth inhibition, 48 h
A549 = tested on: A549
SNB-19 = tested on: SNB-19
HT-29 = tested on: HT-29
HOP-62 = tested on: HOP-62
786-0 = tested on: 786-0
SNB-75 = tested on: SNB-75
HCC 2998 = tested on: HCC 2998
HCT-116 = tested on: HCT-116
KM12 = tested on: KM12
K562 = tested on: K562
SN12C = tested on: SN12C
SF-295 = tested on: SF-295
MDA-N = tested on: MDA-N
EKVX = tested on: EKVX
CAKI-1 = tested on: CAKI-1
OVCAR-8 = tested on: OVCAR-8
CCRF-CEM = tested on: CCRF-CEM
MDA-MB-231 = tested on: MDA-MB-231
NCI-H226 = tested on: NCI-H226
Malme-3M = tested on: Malme-3M

Measured: GI50

Cc1c([N+](=O)[O-])oc2ccc3ccccc3c12
inactive: A549 66.1 µM | SNB-19 > 100 µM | HT-29 14.6 µM | HOP-62 > 100 µM | 786-0 18.1 µM | SNB-75 28.5 µM | HCC 2998 25.1 µM | HCT-116 4.26 µM | KM12 29.9 µM | K562 18.9 µM | SN12C 12.5 µM | SF-295 58.1 µM | MDA-N 26.9 µM | EKVX 23 µM | CAKI-1 11.9 µM | OVCAR-8 26.1 µM | CCRF-CEM 6.32 µM | MDA-MB-231 > 100 µM | NCI-H226 > 100 µM

CC1OC(O[C@H]2CC[C@]3(C)[C@H]4CC=C5[C@@H]6[C@@H](C)[C@H](C)CC[C@]6(C(=O)O)CC[C@@]5(C(=O)O)[C@]4(C)CC[C@H]3C2(C)C)C(O)C(O)C1O (some centres undefined)
inactive: SNB-19 > 75 µM | HOP-62 > 75 µM | 786-0 > 75 µM | SNB-75 > 75 µM | HCC 2998 > 75 µM | HCT-116 > 75 µM | KM12 > 75 µM | K562 > 75 µM | SN12C > 75 µM | SF-295 > 75 µM | MDA-N > 75 µM | CAKI-1 > 75 µM | OVCAR-8 > 75 µM | CCRF-CEM 28.8 µM | MDA-MB-231 > 75 µM

N#C/C(=C/NC(=S)c1ccncc1)C(N)=O
inactive: A549 > 100 µM | SNB-19 > 100 µM | HT-29 > 100 µM | HOP-62 > 100 µM | 786-0 > 100 µM | SNB-75 > 100 µM | HCC 2998 > 100 µM | HCT-116 > 100 µM | KM12 > 100 µM | SN12C > 100 µM | SF-295 > 100 µM | MDA-N > 100 µM | EKVX > 100 µM | CAKI-1 > 100 µM | OVCAR-8 > 100 µM | MDA-MB-231 > 100 µM | NCI-H226 > 100 µM

Cc1ccc(S(=O)(=O)NNC(=O)c2cc(C)ccc2NC(=O)C23CC4CC(CC(C4)C2)C3)cc1
inactive: A549 29.4 µM | SNB-19 16.9 µM | Malme-3M 23.5 µM | HT-29 > 100 µM | HOP-62 29.3 µM | 786-0 21.9 µM | HCC 2998 30.1 µM | HCT-116 31.2 µM | KM12 75.3 µM | K562 > 100 µM | SN12C 44.4 µM | SF-295 45.5 µM | MDA-N > 100 µM | EKVX 60 µM | CAKI-1 46 µM | OVCAR-8 45.7 µM | CCRF-CEM > 100 µM | MDA-MB-231 41.6 µM | NCI-H226 60.7 µM

COC(=O)c1cc(C#N)[nH]c1-c1ccc(C)s1
inactive: A549 46.2 µM | SNB-19 > 100 µM | HOP-62 33 µM | 786-0 98.2 µM | SNB-75 25.3 µM | HCC 2998 > 100 µM | HCT-116 > 100 µM | KM12 92.7 µM | K562 > 100 µM | SN12C 63.2 µM | SF-295 38.8 µM | MDA-N > 100 µM | EKVX 19.5 µM | CAKI-1 41.9 µM | OVCAR-8 59.3 µM | CCRF-CEM 53 µM | MDA-MB-231 38.6 µM | NCI-H226 37.6 µM

NS(=O)(=O)c1nnc(NC(=O)c2cccc([N+](=O)[O-])c2)s1
inactive: A549 > 100 µM | SNB-19 > 100 µM | Malme-3M > 100 µM | HOP-62 > 100 µM | 786-0 > 100 µM | HCC 2998 > 100 µM | HCT-116 > 100 µM | KM12 > 100 µM | K562 > 100 µM | SN12C > 100 µM | SF-295 > 100 µM | MDA-N > 100 µM | EKVX > 100 µM | CAKI-1 > 100 µM | OVCAR-8 > 100 µM | MDA-MB-231 > 100 µM | NCI-H226 > 100 µM

O=C(/C=C/c1ccsc1)c1ccco1
inactive: SNB-19 15.5 µM | HT-29 9.95 µM | HOP-62 14.9 µM | 786-0 12.1 µM | SNB-75 12.8 µM | HCC 2998 12.2 µM | HCT-116 5.97 µM | KM12 4.8 µM | K562 4.71 µM | SN12C 14.6 µM | SF-295 14.2 µM | MDA-N 12.1 µM | EKVX 16.4 µM | CAKI-1 6.85 µM | OVCAR-8 11.7 µM | CCRF-CEM 5.86 µM | MDA-MB-231 12.7 µM | NCI-H226 28.1 µM

CC(C)CCCC(C)[C@H]1CCC2[C@@H]3CCC4Cc5nc6c(nc5C[C@]4(C)C3CC[C@@]21C)CC1CC[C@@H]2C(C[C@@H](O)[C@@]3(C)C2C[C@@H]2OC4(CCC(C)CO4)C(C)[C@@H]23)[C@@]1(C)C6 (some centres undefined)
inactive: A549 > 100 µM | SNB-19 > 100 µM | HT-29 > 100 µM | HOP-62 > 100 µM | 786-0 > 100 µM | SNB-75 > 100 µM | HCC 2998 > 100 µM | HCT-116 > 100 µM | KM12 > 100 µM | K562 > 100 µM | SN12C > 100 µM | SF-295 > 100 µM | MDA-N > 100 µM | EKVX > 100 µM | OVCAR-8 > 100 µM | CCRF-CEM > 100 µM | MDA-MB-231 > 100 µM | NCI-H226 > 100 µM

CC(=O)/C(=C/N1C(=O)CC(=O)NC1=S)C(=O)Nc1ccccc1C
inactive: A549 34.8 µM | SNB-19 > 100 µM | HT-29 23.5 µM | HOP-62 23.3 µM | 786-0 21.7 µM | SNB-75 91.6 µM | HCC 2998 29.4 µM | HCT-116 31.6 µM | KM12 37.5 µM | SN12C > 100 µM | SF-295 84.3 µM | MDA-N 49.2 µM | EKVX 38.5 µM | CAKI-1 87.9 µM | OVCAR-8 > 100 µM | MDA-MB-231 > 100 µM | NCI-H226 > 100 µM

CC(C)c1cc(C(C)C)c(B(c2ccccc2)c2ccccc2)c(C(C)C)c1Br
inactive: A549 > 100 µM | SNB-19 > 100 µM | Malme-3M > 100 µM | HT-29 > 100 µM | HOP-62 > 100 µM | 786-0 > 100 µM | HCC 2998 > 100 µM | HCT-116 > 100 µM | KM12 > 100 µM | K562 > 100 µM | SN12C > 100 µM | SF-295 > 100 µM | MDA-N > 100 µM | EKVX > 100 µM | CAKI-1 > 100 µM | OVCAR-8 > 100 µM | CCRF-CEM > 100 µM | MDA-MB-231 > 100 µM | NCI-H226 > 100 µM

O=S(=O)(O)c1cc(Cl)c(O)c2ncc(Cl)cc12
inactive: A549 77.1 µM | SNB-19 84.7 µM | HT-29 38.5 µM | HOP-62 > 100 µM | 786-0 92 µM | SNB-75 > 100 µM | HCC 2998 > 100 µM | HCT-116 36.5 µM | KM12 > 100 µM | K562 41.6 µM | SN12C 64 µM | SF-295 > 100 µM | MDA-N > 100 µM | EKVX 69 µM | CAKI-1 > 100 µM | OVCAR-8 37.5 µM | CCRF-CEM 24.6 µM | MDA-MB-231 > 100 µM | NCI-H226 73.1 µM

CC(C)OCC(O)COc1cc(=O)oc2ccccc12 (centres undefined)
inactive: A549 > 100 µM | SNB-19 > 100 µM | Malme-3M > 100 µM | HT-29 > 100 µM | HOP-62 > 100 µM | 786-0 > 100 µM | HCC 2998 50.4 µM | HCT-116 > 100 µM | KM12 > 100 µM | K562 > 100 µM | SN12C > 100 µM | SF-295 > 100 µM | MDA-N > 100 µM | EKVX > 100 µM | CAKI-1 > 100 µM | OVCAR-8 > 100 µM | CCRF-CEM > 100 µM | MDA-MB-231 > 100 µM

Nc1ncnc2oc(-c3cccs3)nc12
inactive: A549 > 100 µM | SNB-19 > 100 µM | HT-29 83.4 µM | HOP-62 > 100 µM | 786-0 > 100 µM | HCC 2998 > 100 µM | HCT-116 > 100 µM | KM12 > 100 µM | K562 > 100 µM | SN12C > 100 µM | SF-295 > 100 µM | MDA-N > 100 µM | EKVX 37.5 µM | OVCAR-8 > 100 µM | CCRF-CEM > 100 µM | MDA-MB-231 > 100 µM | NCI-H226 > 100 µM

COC(=O)C(CCC1C=CCC1)/N=C\c1ccccc1 (centres undefined)
inactive: A549 49.9 µM | SNB-19 79.1 µM | HT-29 50 µM | HOP-62 68.5 µM | 786-0 66.2 µM | SNB-75 93.3 µM | HCC 2998 86.3 µM | HCT-116 31.3 µM | KM12 45 µM | K562 47.2 µM | SN12C 60.4 µM | SF-295 57.7 µM | MDA-N 49.9 µM | EKVX 44.8 µM | CAKI-1 50.2 µM | OVCAR-8 68.2 µM | CCRF-CEM 56 µM | MDA-MB-231 68.9 µM | NCI-H226 56.8 µM

O=C1C2CC=CCC2C(=O)N1n1c(Cc2ccccc2)n[nH]c1=O (centres undefined)
inactive: A549 > 100 µM | SNB-19 > 100 µM | Malme-3M > 100 µM | HT-29 > 100 µM | HOP-62 > 100 µM | 786-0 > 100 µM | HCC 2998 > 100 µM | HCT-116 > 100 µM | KM12 > 100 µM | K562 > 100 µM | SN12C > 100 µM | SF-295 > 100 µM | MDA-N > 100 µM | EKVX > 100 µM | CAKI-1 > 100 µM | OVCAR-8 > 100 µM | CCRF-CEM > 100 µM | MDA-MB-231 > 100 µM | NCI-H226 > 100 µM

— ChEMBL document CHEMBL1201862, “PubChem BioAssay data set” (2004)
